The source of these data is ChEMBL document CHEMBL1149426 (Bioorg Med Chem Lett, 2006).

A short description of data set [1]: Inhibitory activity against GABA receptor.
Data set [2] in a line: Permeability across Caco-2 cell membrane. Format: ADME, cell-based. The settings on record: human.
For another data set, the target named is D(1B) dopamine receptor (Homo sapiens, UniProt P21918). In words: Inhibitory activity against dopamine D5 receptor.
For data set [3], the target named is Muscarinic acetylcholine receptor. Nature of the data set: Inhibitory activity against muscarinic receptor. Type of data set: protein assay.
The species named for another data set is Canis familiaris. In words: Metabolic stability in dog liver microsomes. Format: ADME, Canis lupus familiaris. On the technique in general: Liver microsomes are vesicles of endoplasmic reticulum, rich in cytochrome P450 enzymes.
Data set [4] in a line: Inhibitory activity against neurotransmitter transporter.
The nature of data set [5]: Inhibitory activity against 5HT receptor.
The target of another data set is D(1A) dopamine receptor (Homo sapiens, UniProt P21728). Nature of the data set: Inhibitory activity against dopamine D1 receptor.
D(1A) dopamine receptor, sequence (P21728 whole entry): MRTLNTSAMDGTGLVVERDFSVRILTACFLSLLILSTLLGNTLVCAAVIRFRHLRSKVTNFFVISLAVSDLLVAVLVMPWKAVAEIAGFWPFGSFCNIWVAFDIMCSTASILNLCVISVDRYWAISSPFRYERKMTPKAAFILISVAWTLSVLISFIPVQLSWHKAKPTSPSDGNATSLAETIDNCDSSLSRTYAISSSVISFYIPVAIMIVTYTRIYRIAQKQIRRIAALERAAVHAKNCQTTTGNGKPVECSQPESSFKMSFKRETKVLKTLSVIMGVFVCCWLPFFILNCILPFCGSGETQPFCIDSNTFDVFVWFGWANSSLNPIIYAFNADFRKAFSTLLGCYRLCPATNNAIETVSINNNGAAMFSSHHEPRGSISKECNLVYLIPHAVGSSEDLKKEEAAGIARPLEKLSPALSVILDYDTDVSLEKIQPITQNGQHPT
The target in another data set is T1, Cholecystokinin receptor (Homo sapiens, UniProt P32239+P32238).
T1 sequence (P32239 whole entry): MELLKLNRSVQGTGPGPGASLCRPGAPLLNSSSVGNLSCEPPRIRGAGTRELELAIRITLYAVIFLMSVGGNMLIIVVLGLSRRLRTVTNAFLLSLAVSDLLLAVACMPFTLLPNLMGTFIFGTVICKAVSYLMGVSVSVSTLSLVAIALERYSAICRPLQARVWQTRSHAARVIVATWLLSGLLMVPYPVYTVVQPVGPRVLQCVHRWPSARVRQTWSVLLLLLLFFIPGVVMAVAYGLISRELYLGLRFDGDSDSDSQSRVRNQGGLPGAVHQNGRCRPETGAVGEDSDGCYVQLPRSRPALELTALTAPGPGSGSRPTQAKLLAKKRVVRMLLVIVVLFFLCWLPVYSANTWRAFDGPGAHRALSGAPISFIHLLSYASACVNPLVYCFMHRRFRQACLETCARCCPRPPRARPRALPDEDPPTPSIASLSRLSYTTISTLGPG
T1 sequence (P32238 whole entry): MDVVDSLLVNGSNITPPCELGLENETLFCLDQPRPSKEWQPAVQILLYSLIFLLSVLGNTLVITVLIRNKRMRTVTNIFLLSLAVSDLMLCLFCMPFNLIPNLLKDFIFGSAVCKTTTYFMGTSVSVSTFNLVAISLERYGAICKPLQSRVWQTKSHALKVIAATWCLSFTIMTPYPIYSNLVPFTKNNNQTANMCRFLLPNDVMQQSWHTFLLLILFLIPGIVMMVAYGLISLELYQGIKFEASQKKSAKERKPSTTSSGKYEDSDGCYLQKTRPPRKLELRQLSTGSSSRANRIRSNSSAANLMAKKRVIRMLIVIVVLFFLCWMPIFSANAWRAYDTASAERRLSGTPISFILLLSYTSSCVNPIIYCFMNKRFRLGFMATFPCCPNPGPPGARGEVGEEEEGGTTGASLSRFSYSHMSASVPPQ
Nature of the data set: Inhibitory activity against cholecystokinin receptor. Type of data set: protein assay.

Data set [6] relates to Liver microsomes. In words: Metabolic stability in human liver microsomes. Format: ADME, Microsome.
A further data set concerns the target Adenosine receptor (Homo sapiens, UniProt P30542+P29275+P0DMS8+P29274). In words: Inhibitory activity against adenosine receptor. Format: protein assay.
The target of data set [7] is Opioid receptors; mu/kappa/delta (Homo sapiens, UniProt P41145+P41143+P35372). In words: Inhibitory activity against opioid receptor. Format: protein assay.
The next data set deals with D(2) dopamine receptor (Homo sapiens, UniProt P14416). Nature of the data set: Binding affinity to human cloned dopamine D2 receptor.
D(2) dopamine receptor, sequence (P14416 whole entry): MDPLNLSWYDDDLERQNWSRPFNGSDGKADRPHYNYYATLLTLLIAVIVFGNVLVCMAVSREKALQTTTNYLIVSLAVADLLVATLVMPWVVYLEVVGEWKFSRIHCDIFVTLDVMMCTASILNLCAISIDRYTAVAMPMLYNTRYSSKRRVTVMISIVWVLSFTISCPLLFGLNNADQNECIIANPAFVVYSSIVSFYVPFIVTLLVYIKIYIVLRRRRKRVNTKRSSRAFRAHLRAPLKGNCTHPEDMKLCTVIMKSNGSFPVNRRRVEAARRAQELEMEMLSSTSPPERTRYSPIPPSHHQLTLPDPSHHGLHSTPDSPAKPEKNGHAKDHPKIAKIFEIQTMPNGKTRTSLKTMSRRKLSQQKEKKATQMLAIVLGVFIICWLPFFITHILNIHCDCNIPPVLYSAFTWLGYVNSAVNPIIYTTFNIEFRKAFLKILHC
Another data set deals with Rattus norvegicus. In words: Ability to restitute huddling in rat at 2.15 mg/kg, po. Type of data set: functional.
Data set [8] relates to Liver microsomes. Nature of the data set: Metabolic stability in rat liver microsomes. Format: ADME, Microsome.
Data set [9] addresses GABA-A receptor; anion channel. In words: Inhibitory activity against central benzodiazepine receptor. Format: protein-complex assay.
A short description of data set [10]: Inhibitory activity against adrenergic receptor.
The target in a further data set is D(3) dopamine receptor (Homo sapiens, UniProt P35462). Nature of the data set: Binding affinity to human cloned dopamine D3 receptor.
D(3) dopamine receptor, sequence (P35462 whole entry): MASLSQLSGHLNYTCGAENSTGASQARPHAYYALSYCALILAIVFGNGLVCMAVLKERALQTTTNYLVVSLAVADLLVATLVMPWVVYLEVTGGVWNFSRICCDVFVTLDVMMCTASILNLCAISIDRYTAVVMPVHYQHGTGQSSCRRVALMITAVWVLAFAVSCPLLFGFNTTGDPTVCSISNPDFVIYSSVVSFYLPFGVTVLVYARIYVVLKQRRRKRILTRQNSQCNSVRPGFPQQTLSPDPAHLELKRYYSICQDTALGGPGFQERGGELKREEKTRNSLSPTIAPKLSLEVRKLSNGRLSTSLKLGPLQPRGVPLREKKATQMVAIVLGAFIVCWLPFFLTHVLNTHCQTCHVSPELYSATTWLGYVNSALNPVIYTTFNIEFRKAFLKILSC

D(1B) dopamine receptor, sequence (P21918 whole entry): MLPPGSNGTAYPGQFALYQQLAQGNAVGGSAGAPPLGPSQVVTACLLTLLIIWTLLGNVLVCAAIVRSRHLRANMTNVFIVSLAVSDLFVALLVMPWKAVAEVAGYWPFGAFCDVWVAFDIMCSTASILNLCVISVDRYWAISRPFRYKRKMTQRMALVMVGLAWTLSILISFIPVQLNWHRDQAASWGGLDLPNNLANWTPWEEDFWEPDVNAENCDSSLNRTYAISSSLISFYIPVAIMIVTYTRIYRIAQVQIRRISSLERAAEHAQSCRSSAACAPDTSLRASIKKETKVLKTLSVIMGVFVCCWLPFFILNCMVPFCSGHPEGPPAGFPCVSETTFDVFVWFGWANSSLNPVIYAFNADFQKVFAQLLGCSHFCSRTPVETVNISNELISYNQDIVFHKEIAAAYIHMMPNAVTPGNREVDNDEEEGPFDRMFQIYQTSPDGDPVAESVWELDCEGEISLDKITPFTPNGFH

For the molecule `CC(C)(C)c1nc(N2CCN(CCCCN3C(=O)CCC(=O)c4ccccc43)CC2)cc(C(F)(F)F)n1`, the IC50 (in data set [1]; against D(1B) dopamine receptor; in [3]; in data set [4]; in [5]; at D(1A) dopamine receptor) was above 10 µM throughout. The IC50 (at Cholecystokinin receptor; at Adenosine receptor; in data set [7]; in data set [9]; in data set [10]) was above 10 µM in each case. In addition, in data set [2], the Papp (in general, a coefficient for how fast a substance crosses the barrier) was 0.33 ×10⁻⁶ cm/s. In addition, the Stability in the data set filed under Canis familiaris, with Liver microsomes [6] and in the data set on Liver microsomes [8] was above 97% throughout. In addition, the Ki – broadly, the dissociation constant of the complex between target and ligand, obtained from inhibition or displacement – at D(2) dopamine receptor was 246 nM. The molecule also came in with an Activity with Rattus norvegicus of 37%.

Consider `CC(C)(C)c1nc(N2CCN(CCCCN3C(=O)CCCc4c(O)cccc43)CC2)cc(C(F)(F)F)n1`, for which, on D(2) dopamine receptor, the Ki is 93 nM.

On to `CC(C)(C)c1nc(N2CCN(CCCCN3C(=O)CC(=O)c4ccccc43)CC2)cc(C(F)(F)F)n1`, for which the Ki on D(3) dopamine receptor was 39.6 nM; at D(2) dopamine receptor it was 142 nM.

For the molecule `C/C(=C\CN1CCN(c2cc(C(F)(F)F)nc(C(C)(C)C)n2)CC1)CN1C(=O)CCc2ccccc21`, the Ki at D(3) dopamine receptor was 58.9 nM; at D(2) dopamine receptor, 669 nM.

As to `CC(C)(C)c1nc(N2CCN(CCCCN3CCC(=O)CCC3=O)CC2)cc(C(F)(F)F)n1`, the results for the Ki at D(3) dopamine receptor and on D(2) dopamine receptor were 3.9 nM and 65 nM, respectively.

At D(3) dopamine receptor, `CC(C)(C)c1nc(N2CCN(CCCCCN3C(=O)CCc4ccccc43)CC2)cc(C(F)(F)F)n1` came in with a Ki of 4050 nM.

Consider `CC(C)(C)c1nc(N2CCN(C/C=C/CN3C(=O)CCc4ccccc43)CC2)cc(C(F)(F)F)n1`, for which the affinity at D(2) dopamine receptor corresponds to a Ki of 254 nM.

With `CC(C)(C)c1nc(N2CCN(CCCN3C(=O)CCc4ccccc43)CC2)cc(C(F)(F)F)n1`, at D(3) dopamine receptor, the Ki was 93.8 nM.

For `CC(C)(C)c1nc(N2CCN(CCCCn3c(=O)ccc4ccccc43)CC2)cc(C(F)(F)F)n1`, the Ki on D(3) dopamine receptor worked out at 11.2 nM; at D(2) dopamine receptor, 151 nM.

As for `COc1cccc2c1CCCC(=O)N2CCCCN1CCN(c2cc(C(F)(F)F)nc(C(C)(C)C)n2)CC1`, the Ki came out at 10.1 nM at D(3) dopamine receptor and 243 nM on D(2) dopamine receptor.

With `C[C@@H](CCCN1C(=O)CCc2ccccc21)N1CCN(c2cc(C(F)(F)F)nc(C(C)(C)C)n2)CC1`, the values for the Ki at D(3) dopamine receptor and on D(2) dopamine receptor were 22.4 nM and 289 nM, respectively.

In turn, `COc1cc2c(cc1OC)N(CCCCN1CCN(c3cc(C(F)(F)F)nc(C(C)(C)C)n3)CC1)C(=O)CCC2=O` displayed a Ki on D(2) dopamine receptor of 467 nM.

Consider `CC(C)(C)c1nc(N2CCN(CCCCN3C(=O)CCSc4ccccc43)CC2)cc(C(F)(F)F)n1`, for which the Ki on D(3) dopamine receptor was 9.6 nM; on D(2) dopamine receptor it was 83 nM.

As for `CC(C)(C)c1nc(N2CCN(CCCCN3C(=O)CCCc4ccccc43)CC2)cc(C(F)(F)F)n1`, the Ki amounted to 16.8 nM at D(3) dopamine receptor and 118 nM on D(2) dopamine receptor.

As for `CC(C)(C)c1nc(N2CCN(CCCCN3C(=O)COc4ccccc43)CC2)cc(C(F)(F)F)n1`, the Ki was 12.1 nM at D(3) dopamine receptor and 354 nM on D(2) dopamine receptor.

`CC(C)(C)c1nc(N2CCN(CCCCN3C(=O)CCc4ccccc43)CC2)cc(C(F)(F)F)n1`: the Ki worked out at 3.4 nM at D(3) dopamine receptor and 126 nM on D(2) dopamine receptor.

On to `C[C@H](CCN1CCN(c2cc(C(F)(F)F)nc(C(C)(C)C)n2)CC1)CN1C(=O)CCc2ccccc21`, for which the inhibitory constant (Ki) was 64.9 nM at D(3) dopamine receptor and 261 nM at D(2) dopamine receptor.

For the molecule `CC(C)(C)c1nc(N2CCN(CCCCN3Cc4ccccc4CC3=O)CC2)cc(C(F)(F)F)n1`, the affinity on D(3) dopamine receptor, expressed as Ki, was 293 nM.
